Experimental data reported in US9102701B2, “17-hydroxy-17-pentafluoroethyl-estra-4,9(10)-diene-11-ethynylphenyl derivatives, methods for the production thereof and use thereof for treating diseases” (Bayer Intellectual Property GmbH, priority 2009, dated 2015).
≈ marks a conversion by molar mass, not a printed value.

Legend:
[1] = Metabolic stability in rat liver microsomes; assay type: in vitro ADME
Experimental: (§1) Determination of Metabolic Stability in Human and Rat Liver Microsomes
(§2) The incubations were conducted with 2.4 ml of HLM solution (protein content 0.5 mg/ml), 30 μl of the test compound (final concentration 1 μM) and 0.6 ml of the cofactor mixture (═NADPH-generating system composed of 3 IU glucose-6-phosphate dehydrogenase, 14.6 mg glucose-6-phosphate, 1.2 mg NADP) at 37° C. in 100 mM phosphate buffer at pH 7.4. Samples were taken at 6 time points (2-60 min) and precipitated with an equal volume of methanol, and the recovery of the test substances used in the supernatant was determined by LC-MS/MS analysis. The half-life of substance degradation determined therefrom was used to calculate what is called the intrinsic clearance of the substance in the liver microsome preparation.

[2] = Solubility in aqueous medium at pH 7.4; assay type: physicochemical; conditions: for solubility: aqueous medium, pH 7.4, aqueous buffer
[3] = molecular target: T1, human progesterone receptor B (Homo sapiens, UniProt P06401); test: Progesterone receptor-antagonistic action in stably transfected SK-N-MC cells, PR-B, MMTV-LUC reporter; assay type: cell-based; conditions: read-out: IC50 PR-B
T1 construct: expressed in transfected cells; host or cells: SK-N-MC human neuroblastoma cells, stably transfected with pRChPR-B-neo and pMMTV-LUC
T1 sequence (P06401 1-933): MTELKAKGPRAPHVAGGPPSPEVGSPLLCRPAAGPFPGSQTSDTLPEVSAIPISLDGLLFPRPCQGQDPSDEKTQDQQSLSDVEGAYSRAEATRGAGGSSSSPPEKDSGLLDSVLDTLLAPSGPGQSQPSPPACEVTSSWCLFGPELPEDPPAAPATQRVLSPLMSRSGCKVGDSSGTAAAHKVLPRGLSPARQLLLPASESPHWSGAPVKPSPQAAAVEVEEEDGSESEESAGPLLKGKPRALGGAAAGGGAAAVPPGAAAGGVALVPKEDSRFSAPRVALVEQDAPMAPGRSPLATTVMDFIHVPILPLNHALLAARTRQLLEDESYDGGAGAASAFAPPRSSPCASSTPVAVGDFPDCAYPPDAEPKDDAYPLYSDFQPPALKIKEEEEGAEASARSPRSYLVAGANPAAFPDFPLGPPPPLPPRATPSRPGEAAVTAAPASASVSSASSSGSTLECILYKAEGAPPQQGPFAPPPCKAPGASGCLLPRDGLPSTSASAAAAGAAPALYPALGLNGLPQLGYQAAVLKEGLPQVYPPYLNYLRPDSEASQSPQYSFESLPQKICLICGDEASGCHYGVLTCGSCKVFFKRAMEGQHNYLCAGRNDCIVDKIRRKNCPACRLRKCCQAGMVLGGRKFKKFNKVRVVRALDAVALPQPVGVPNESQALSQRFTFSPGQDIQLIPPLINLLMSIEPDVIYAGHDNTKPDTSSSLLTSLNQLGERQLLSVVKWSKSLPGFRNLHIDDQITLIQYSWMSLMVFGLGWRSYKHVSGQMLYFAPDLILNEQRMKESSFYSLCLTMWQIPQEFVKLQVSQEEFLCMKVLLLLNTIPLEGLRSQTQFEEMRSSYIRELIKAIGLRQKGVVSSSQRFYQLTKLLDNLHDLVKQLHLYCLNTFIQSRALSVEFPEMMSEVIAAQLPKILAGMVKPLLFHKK
How it was run: (§3)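 SK-N-MC neuroblastoma cells stably expressing human PR-A or PR-B plus MMTV-LUC reporter, treated 24 h with compound (0.01 nmol/l upward). Antagonism measured against 0.1 nmol/l promegestone; luciferase in lysates as RLU, given as % efficacy and IC50 (agonism as EC50).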

[4] = molecular target: T2, human progesterone receptor A (Homo sapiens, UniProt P06401); test: Progesterone receptor-antagonistic action in stably transfected SK-N-MC cells, PR-A, MMTV-LUC reporter; assay type: cell-based; conditions: read-out: IC50 PR-A
T2 construct: expressed in transfected cells; host or cells: SK-N-MC human neuroblastoma cells, stably transfected with pRChPR-A-neo and pMMTV-LUC
T2 sequence (P06401 1-769 isoform P06401-2): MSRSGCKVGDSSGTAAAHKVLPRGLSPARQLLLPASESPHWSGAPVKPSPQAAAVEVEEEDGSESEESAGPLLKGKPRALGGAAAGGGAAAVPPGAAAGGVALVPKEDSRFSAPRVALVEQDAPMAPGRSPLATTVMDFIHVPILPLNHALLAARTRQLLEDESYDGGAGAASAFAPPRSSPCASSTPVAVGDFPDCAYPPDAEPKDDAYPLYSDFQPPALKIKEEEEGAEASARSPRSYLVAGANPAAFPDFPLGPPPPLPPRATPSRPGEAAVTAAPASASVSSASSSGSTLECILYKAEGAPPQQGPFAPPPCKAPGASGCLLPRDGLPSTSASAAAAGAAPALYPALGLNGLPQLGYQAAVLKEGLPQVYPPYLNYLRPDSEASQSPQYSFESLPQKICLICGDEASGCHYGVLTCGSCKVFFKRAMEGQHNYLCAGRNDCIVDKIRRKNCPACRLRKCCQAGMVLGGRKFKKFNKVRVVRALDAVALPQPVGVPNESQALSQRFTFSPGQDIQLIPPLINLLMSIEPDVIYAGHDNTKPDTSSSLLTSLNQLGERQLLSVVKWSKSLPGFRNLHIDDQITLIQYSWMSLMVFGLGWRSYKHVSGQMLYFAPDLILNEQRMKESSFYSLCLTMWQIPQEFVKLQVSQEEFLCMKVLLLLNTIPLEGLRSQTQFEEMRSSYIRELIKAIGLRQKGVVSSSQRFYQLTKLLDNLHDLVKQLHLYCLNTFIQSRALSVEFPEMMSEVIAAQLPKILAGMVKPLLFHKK
How it was run: as §3

[5] = Metabolic stability in human liver microsomes; assay type: in vitro ADME; conditions: for Predicted clearance Human: predicted in vivo clearance from liver microsomes, well-stirred model, 1 μM
Experimental: as §1
Isolated Human Liver Microsomes (HLM) were Used to Assess the Metabolic Stability of compounds of general formula I.
as §2

pregnant rats = test: Abortion test on female rats; assay type: in vivo; conditions: d5-d7 p.c., autopsy d9 p.c.
Experimental: Abortion Test on Female Rats
The action of progesterone and of the progesterone receptor is a fundamental precondition for successful pregnancy or gestation in mammals. The progesterone-antagonistic action of the inventive compounds was tested on pregnant rats (6 rats per group) on days 5 to 7 post coitum under conventional housing and feeding conditions.
After successful mating, the pregnant animals (presence of sperm in the vaginal smear on day 1 of pregnancy=d1 p.c.) were randomized and divided into the treatment group and the control group. The animals then each received subcutaneously or orally 0.15; 0.5; 1.5 or 5 mg/kg of the test compound or 1.0 ml/kg of vehicle (benzyl benzoate/castor oil: 1+4 [v/v]) daily from day 5 to day 7 (d5−d7 p.c.).
Autopsy was conducted on day 9 (d9 p.c.). As a characteristic of progesterone receptor-antagonistic action, the uterus was examined for the presence of nidation sites. Complete absence, or else the presence of pathological, haemorrhagic or otherwise abnormal nidation sites, on day 9 (d9 p.c.) was considered as abortion.

[6] = Clearance and half-life after intravenous administration in rats; assay type: in vivo; conditions: i.v. bolus 0.3-0.5 mg/kg; for CLblood: female rats
Experimental: Determination of Clearance and of Half-Life after Intravenous Administration in Rats
The determination of the in vivo clearance and half-life of test substances was conducted in female rats with a body weight of approx. 200-250 g. For this purpose, the test substances (in a cassette test up to 3 different substances per animal) were administered intravenously (i.v.) into the tail vein in dissolved form at a dose of 0.3-0.5 mg/kg as a bolus in a volume of 2 ml/kg, using compatible solubilizers such as PEG400 and/or ethanol in a compatible amount. A polyurethane catheter in the jugular vein was used to take approx. 0.2 ml blood samples at the time points of 2 min, 8 min, 15 min, 30 min, 45 min, 1 h, 2 h, 4 h, 6 h, 8 h, 24 h. The blood samples were stored without shaking in lithium heparin tubes (Monovettes® from Sarstedt) and centrifuged at 3000 rpm for 15 min. An aliquot of 100 μl was taken from the supernatant (plasma) and precipitated by adding 400 μl of cold methanol. The precipitated samples were frozen at −20° C. overnight, then centrifuged again at 3000 rpm for 15 min, before 150 μl of the clear supernatant were removed to determine the concentration. The analysis was effected by means of an Agilent 1200 HPLC system with connected LC-MS/MS detection.
Calculation of the PK Parameters (Via Nonlinear Regression by PK Calculation Software):
CLplasma: total plasma clearance of the test substance (in l*kg/h),
where CLplasma=dose/AUCinf;
AUCinf: extrapolated area under the plasma concentration-time curve (in μg*h/l);
CLblood: total blood clearance of the test substance (in l*kg/h), where (CLblood=CLplasma*Cp/Cb);
Cb/Cp: ratio of the blood to plasma concentration distribution of the test substance;
T½: terminal half-life of the test substance (in h).

Row | SMILES | predicted maximum bioavailability in rats (in words) [1] | solubility [2] [µg/mL] | IC50 [3] [nM] | IC50 [4] [nM] | Predicted Fmax (maximum oral bioavailability) Human ([5]; calculated from liver microsome data) [%] | Predicted clearance Human [5] [mL/min/kg] | solubility (in words) ([2]; aqueous medium under physiological conditions) | Abortion rate (pregnant rats; daily dose 0.5 mg/kg p.o.) [%] | Abortion rate (pregnant rats; daily dose 1.5 mg/kg p.o.) [%] | Abortion rate (pregnant rats; daily dose 5.0 mg/kg p.o.) [%] | CLblood [6] [mL/min/kg] | half-life ([6]; female, rat, plasma, iv, read-out: t1/2 (terminal half-life)) [h]
1 | C[C@]12C[C@H](c3ccc(CO)cc3)C3=C4CCC(=O)C=C4CC[C@H]3[C@@H]1CC[C@@]2(O)C(F)(F)C(F)(F)F [Ref. 1*, (8S,11R,13S,14S,17S)-17-hydroxy-11-[4-(hydroxymethyl)phenyl]-13-methyl-17-pentafluoroethyl-1,2,6,7,8,11,12,13,14,15,16,17-dodecahydrocyclopenta[a]phenanthren-3-one, reference compound] | good | 17 (≈ 34.2 µM) | 0.3 | 0.4 | 42 | 12 | – | – | – | – | – | –
2 | C[C@]12C[C@H](c3ccc(C#Cc4ccc(C(=O)O)cc4)cc3)C3=C4CCC(=O)C=C4CC[C@H]3[C@@H]1CC[C@@]2(O)C(F)(F)C(F)(F)F [Example 16, 4-[4-((8S,11R,13S,14S,17S)-17-hydroxy-13-methyl-3-oxo-17-pentafluoroethyl-2,3,6,7,8,11,12,13,14,15,16,17-dodecahydro-1H-cyclopenta[a]phenanthren-11-yl)phenylethynyl]benzoic acid] | – | 204 (≈ 334 µM) | 0.05 | 0.1 | – | 5.5 | improved solubility | 0 | 16.7 | 100 | 35 ± 8.3 | –
3 | C[C@]12C[C@H](c3ccc(C#C/C=C/C#N)cc3)C3=C4CCC(=O)C=C4CCC3C1CC[C@@]2(O)C(F)(F)C(F)(F)F (stereo partly drawn) [Example 4, (E)-5-[4-((8S,11R,13S,14S,17S)-17-hydroxy-13-methyl-3-oxo-17-pentafluoroethyl-2,3,6,7,8,11,12,13,14,15,16,17-dodecahydro-1H-cyclopenta[a]phenanthren-1′-yl)phenyl]pent-2-en-4-ynenitrile] | – | 8 (≈ 14.8 µM) | 0.1 | 0.2 | – | 1.5 | – | – | – | – | 55 ± 21.7 | ≥ 1
